The target in test [1] is DNA dC->dU-editing enzyme APOBEC-3G (Homo sapiens, UniProt Q9HC16). The test is described as follows: Dose Response confirmation of small molecule APOBEC3G DNA Deaminase Inhibitors via a fluorescence-based single-stranded DNA deaminase assay. [Related pubchem assays (depositor defined):AID493012, AID493028]. Type of test: functional.
In another test the target is Cytochrome P450 3A4 (Homo sapiens, UniProt P08684).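 Also: CYP3A4 tested as one member of a cytochrome P450 panel screen.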
Test [2] concerns the target Glucose-6-phosphate 1-dehydrogenase (Homo sapiens, UniProt P11413). The test is described as follows: inhibition of Homo sapiens G6PD, dose series – biochemical, fluorescence, selectivity assay for P. falciparum G6PD inhibitor project, dose response (AID 504792). The format is functional.
For the next test, the target named is T1, Coagulation factor XII (Homo sapiens, UniProt P00748).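 Also: activated factor XIIa alpha cleaving a fluorogenic AMC peptide substrate; inhibitor potency from loss of enzyme activity.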
T1 sequence (P00748 whole entry): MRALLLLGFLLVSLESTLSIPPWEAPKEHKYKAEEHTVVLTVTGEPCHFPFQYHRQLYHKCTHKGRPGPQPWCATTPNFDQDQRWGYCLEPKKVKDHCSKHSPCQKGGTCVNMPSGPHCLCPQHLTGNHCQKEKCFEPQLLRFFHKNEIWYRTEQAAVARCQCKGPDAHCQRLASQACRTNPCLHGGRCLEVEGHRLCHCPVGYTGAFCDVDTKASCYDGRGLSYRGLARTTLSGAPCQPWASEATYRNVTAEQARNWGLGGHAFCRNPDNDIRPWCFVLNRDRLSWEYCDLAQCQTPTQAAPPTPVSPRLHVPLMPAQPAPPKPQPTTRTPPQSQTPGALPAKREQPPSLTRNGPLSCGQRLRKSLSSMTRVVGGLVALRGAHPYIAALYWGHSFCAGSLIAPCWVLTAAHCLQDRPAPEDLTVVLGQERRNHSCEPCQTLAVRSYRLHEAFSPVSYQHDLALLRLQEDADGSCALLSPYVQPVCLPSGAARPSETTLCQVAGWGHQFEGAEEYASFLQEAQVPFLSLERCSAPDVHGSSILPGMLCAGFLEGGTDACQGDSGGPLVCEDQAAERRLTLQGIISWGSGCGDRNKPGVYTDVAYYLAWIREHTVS
Type of test: functional.

The target in another test is T2, Streptokinase A (Streptococcus pyogenes serotype M1, UniProt P10520).
T2 sequence (P10520 whole entry): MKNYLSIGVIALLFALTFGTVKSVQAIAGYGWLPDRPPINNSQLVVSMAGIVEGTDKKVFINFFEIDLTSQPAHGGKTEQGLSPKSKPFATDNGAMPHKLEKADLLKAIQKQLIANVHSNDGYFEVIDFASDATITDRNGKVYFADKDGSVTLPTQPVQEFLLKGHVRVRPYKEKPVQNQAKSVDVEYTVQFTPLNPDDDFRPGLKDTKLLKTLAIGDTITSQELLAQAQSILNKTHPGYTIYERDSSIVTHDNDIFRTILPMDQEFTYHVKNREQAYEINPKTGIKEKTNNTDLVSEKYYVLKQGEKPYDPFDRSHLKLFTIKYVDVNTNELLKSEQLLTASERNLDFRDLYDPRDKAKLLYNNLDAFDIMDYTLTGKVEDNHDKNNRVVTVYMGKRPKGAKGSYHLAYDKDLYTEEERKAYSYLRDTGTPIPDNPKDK
The test is described as follows: viability-normalized secreted streptokinase activity reduction – plasminogen activation absorbance, OD405, dose response (AID 1914).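 Also: secreted streptokinase activity via plasminogen activation per viability signal from cell pellet.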 The format is functional, Streptococcus pyogenes M1 GAS.

Test [3] deals with T3, Beta-galactosidase (Escherichia coli, UniProt Q8VNN2). The test is described as follows: detection-enzyme interference by beta-gal modulators – biochemical, E. coli enzyme, set 3, artefact control for CCR6 antagonist project, dose response (AID 504712). Type of test: functional.
T3 sequence (Q8VNN2 whole entry): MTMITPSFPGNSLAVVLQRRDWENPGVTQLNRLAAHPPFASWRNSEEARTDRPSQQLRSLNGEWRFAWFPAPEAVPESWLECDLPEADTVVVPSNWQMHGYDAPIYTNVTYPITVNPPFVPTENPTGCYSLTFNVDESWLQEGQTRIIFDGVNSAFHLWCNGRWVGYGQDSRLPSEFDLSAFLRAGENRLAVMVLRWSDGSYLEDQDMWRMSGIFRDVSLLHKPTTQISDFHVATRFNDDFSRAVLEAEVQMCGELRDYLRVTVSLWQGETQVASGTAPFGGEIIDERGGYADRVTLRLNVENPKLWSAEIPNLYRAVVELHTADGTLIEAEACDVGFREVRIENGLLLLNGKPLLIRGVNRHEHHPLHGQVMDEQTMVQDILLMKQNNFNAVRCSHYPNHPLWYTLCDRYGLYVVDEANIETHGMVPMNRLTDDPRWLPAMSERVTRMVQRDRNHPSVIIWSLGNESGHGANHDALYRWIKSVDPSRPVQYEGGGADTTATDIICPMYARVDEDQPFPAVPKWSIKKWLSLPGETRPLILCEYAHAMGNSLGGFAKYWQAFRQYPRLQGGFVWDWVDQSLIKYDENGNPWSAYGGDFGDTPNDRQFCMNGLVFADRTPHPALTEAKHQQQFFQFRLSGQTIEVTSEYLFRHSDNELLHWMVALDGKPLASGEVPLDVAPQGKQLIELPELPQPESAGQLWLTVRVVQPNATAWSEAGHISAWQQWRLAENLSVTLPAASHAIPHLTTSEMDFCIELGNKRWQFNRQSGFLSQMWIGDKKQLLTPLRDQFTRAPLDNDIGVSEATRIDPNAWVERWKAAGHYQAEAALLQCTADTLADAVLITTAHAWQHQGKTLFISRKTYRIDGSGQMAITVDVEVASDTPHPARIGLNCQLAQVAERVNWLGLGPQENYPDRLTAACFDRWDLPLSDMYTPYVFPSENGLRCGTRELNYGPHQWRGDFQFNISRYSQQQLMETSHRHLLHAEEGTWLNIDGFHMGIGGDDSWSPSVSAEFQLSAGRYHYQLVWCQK
Test [4] addresses T3, Beta-galactosidase. The format is functional.
Test [5] has as its target T4, Kappa-type opioid receptor (Homo sapiens, UniProt P41145). The format is functional.
Test [6] concerns Streptococcus sp. 'group A'. The test is described as follows: Streptococcus pyogenes SK(-)GAS viability under kanamycin – luminescence, BacTiterGlo, confirmation, counter-screen for streptokinase expression inhibitor project, dose response (AID 1900). Type of test: functional, organism-based. The note with it: Streptococcus sp. 'group A'.
Test [7] concerns the target T4, Kappa-type opioid receptor. Type of test: functional. The source holds these as a separate data set.
A further test deals with Streptococcus. The test is described as follows: GAS UMAA2166 growth inhibition – luminescence, BacTiterGlo, counter-screen for streptokinase expression inhibitor project, dose response (AID 1915).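 Also: potency for reduction of bacterial viability or growth.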 Type of test: functional, organism-based. The note with it: Streptococcus.
Another test addresses Large T antigen (Simian virus 40, UniProt P03070). Type of test: functional, Betapolyomavirus macacae.
Test [8] addresses DNA dC->dU-editing enzyme APOBEC-3A (Homo sapiens, UniProt P31941). The test is described as follows: A3A deaminase inhibition for selectivity – biochemical, dose response (AID 504722). The format is functional.
In another test the target is Trypsin (Sus scrofa, UniProt P00761). The test is described as follows: trypsin protease activity blockade – biochemical, quenched peptide fluorescence, cherry-pick, selectivity assay for Rce1 protease inhibitor project, dose response (AID 488789).
Trypsin, sequence (P00761 whole entry): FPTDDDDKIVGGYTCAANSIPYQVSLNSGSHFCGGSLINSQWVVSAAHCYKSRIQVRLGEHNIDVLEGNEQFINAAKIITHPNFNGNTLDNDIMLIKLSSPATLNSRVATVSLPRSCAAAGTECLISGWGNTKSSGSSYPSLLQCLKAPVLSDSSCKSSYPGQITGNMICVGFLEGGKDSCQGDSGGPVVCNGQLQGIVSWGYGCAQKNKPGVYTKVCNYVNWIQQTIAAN
Another test has as its target Nonstructural protein 1 (Influenza A virus, UniProt Q194T2). Type of test: functional, Influenza A virus (A/California/07/2009(H1N1)).
Test [9] in a line: THP-1 cell cytotoxicity, dose response, cytotoxicity control for non-replicating M. tuberculosis project (AID 489025). Type of test: functional.
Test [10] in a line: Vero E6 cell cytotoxicity, dose response, cytotoxicity control for non-replicating M. tuberculosis project, secondary assay (AID 492998). Type of test: functional, VeroE6. To be noted: Vero C1008.
A further test can be described thus: cells. Type of test: functional.
In test [11] the target is T5, Voltage-gated N-type calcium channel alpha-1B subunit/Amyloid beta A4 precursor protein-binding family A member 1 (Homo sapiens, UniProt Q00975+Q02410). Type of test: protein assay.
The target in another test is T6, Estrogen receptor (Homo sapiens, UniProt P03372).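 Also: potency for inhibiting coactivator peptide recruitment to the receptor.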
T6 sequence (P03372 whole entry): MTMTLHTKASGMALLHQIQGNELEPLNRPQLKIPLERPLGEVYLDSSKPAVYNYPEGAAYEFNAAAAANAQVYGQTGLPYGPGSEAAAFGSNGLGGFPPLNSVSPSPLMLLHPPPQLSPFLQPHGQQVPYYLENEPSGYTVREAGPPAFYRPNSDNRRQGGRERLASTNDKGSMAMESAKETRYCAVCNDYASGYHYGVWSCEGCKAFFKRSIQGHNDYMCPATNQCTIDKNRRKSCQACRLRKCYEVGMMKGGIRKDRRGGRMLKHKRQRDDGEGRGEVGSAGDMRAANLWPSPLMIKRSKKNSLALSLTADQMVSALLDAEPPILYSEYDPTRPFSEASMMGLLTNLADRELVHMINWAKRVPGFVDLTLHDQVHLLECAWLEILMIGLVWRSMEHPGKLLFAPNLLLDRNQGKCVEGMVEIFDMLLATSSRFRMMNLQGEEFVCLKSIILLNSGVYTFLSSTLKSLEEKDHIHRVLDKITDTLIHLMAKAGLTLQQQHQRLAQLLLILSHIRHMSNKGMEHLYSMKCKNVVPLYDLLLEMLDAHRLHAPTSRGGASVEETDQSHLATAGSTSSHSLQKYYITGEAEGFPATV

Test [12] concerns the target T5, Voltage-gated N-type calcium channel alpha-1B subunit/Amyloid beta A4 precursor protein-binding family A member 1. Type of test: protein assay. This is another data set of the same source.
Test [13] concerns the target T7, SUMO-activating enzyme (Homo sapiens, UniProt Q9UBT2). The test is described as follows: blockers of SAE1/SAE2–UBC9 SUMO transfer – biochemical, HTRF, uHTS, primary screen (AID 2006). Type of test: protein-complex assay.
Test [14] deals with T7, SUMO-activating enzyme. The test is described as follows: blockers of UBC9-mediated SUMO conjugation – biochemical, AlphaScreen, SUMOylation inhibitor project, confirmation (AID 2018). Type of test: functional.
A short description of test [15]: microbe, parasite or virus in culture. The note with it: Mycobacterium tuberculosis. The format is functional.
In another test the test system is INS1. The test is described as follows: INS-1E survival protection against cytokine death – cell-based, luminescence, retest, dose response (AID 449756).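 Also: cell death triggered by IL-1 beta plus TNF-alpha plus IFN-gamma mixture; protective hits raise ATP signal compared with cytokine alone wells.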 The format is functional. The note with it: Rattus norvegicus.
Test [16] in a line: Luminescence Cell-Based Dose Retest to Confirm Inhibitors of Cancer Stem Cells. [Related pubchem assays (depositor defined):AID2717, AID2721]. To be noted: Homo sapiens. Type of test: functional, Homo sapiens.
Test [17] addresses FAD-linked sulfhydryl oxidase ALR (Homo sapiens, UniProt P55789). The test is described as follows: ALR-catalysed DTT oxidation blockers – biochemical, H2O2 detection, luminescence, cherry-pick, dose response (AID 493248).
In test [18] the target is Alkaline phosphatase, placental type (Homo sapiens, UniProt P05187). The test is described as follows: human placental alkaline phosphatase inhibition – biochemical, luminescence, confirmation (AID 1512). The format is functional.
Alkaline phosphatase, placental type, sequence (P05187 whole entry): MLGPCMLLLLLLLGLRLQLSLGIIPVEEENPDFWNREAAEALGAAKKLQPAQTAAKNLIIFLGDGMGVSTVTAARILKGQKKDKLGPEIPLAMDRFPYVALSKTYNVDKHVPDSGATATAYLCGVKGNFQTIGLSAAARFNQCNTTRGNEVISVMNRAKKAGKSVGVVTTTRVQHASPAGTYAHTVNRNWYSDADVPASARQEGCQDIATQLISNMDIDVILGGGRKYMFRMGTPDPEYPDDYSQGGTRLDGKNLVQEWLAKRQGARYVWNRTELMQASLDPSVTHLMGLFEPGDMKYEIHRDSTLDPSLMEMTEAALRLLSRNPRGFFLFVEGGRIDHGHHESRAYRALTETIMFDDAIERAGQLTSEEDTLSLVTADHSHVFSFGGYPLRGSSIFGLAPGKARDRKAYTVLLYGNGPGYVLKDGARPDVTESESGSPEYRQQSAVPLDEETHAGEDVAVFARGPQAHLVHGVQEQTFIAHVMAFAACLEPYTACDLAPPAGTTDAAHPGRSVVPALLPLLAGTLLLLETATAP
Test [19] deals with T8, Zinc finger protein mex-5 (Caenorhabditis elegans, UniProt Q9XUB2).
T8 sequence (Q9XUB2 whole entry): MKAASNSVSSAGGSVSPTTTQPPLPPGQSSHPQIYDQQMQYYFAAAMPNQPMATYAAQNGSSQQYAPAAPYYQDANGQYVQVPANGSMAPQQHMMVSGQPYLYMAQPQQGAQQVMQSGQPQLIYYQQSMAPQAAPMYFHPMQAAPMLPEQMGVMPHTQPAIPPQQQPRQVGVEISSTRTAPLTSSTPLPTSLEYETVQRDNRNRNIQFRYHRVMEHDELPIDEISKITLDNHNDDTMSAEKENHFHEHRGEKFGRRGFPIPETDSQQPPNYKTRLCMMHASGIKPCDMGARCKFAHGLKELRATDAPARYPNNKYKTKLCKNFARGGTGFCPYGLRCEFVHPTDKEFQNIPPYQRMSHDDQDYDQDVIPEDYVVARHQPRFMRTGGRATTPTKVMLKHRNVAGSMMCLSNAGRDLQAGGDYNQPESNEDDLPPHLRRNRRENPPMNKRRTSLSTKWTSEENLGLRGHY
The test is described as follows: potency of MEX-5 RNA-binding blockers – biochemical, C. elegans, fluorescence polarization, dose response (AID 1960).

The target of test [20] is T9, RNA-binding protein pos-1 (Caenorhabditis elegans, UniProt G5EF15).
T9 sequence (G5EF15 whole entry): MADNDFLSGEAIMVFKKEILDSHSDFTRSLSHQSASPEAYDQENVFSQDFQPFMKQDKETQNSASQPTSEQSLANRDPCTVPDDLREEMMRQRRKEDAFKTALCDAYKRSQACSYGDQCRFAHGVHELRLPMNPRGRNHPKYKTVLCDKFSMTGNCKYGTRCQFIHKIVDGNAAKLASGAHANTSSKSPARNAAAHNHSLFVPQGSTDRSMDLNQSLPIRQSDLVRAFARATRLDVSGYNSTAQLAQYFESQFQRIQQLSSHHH
The test is described as follows: disruptors of C. elegans POS-1 RNA interaction – biochemical, fluorescence polarization, dose response (AID 1964).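 Also: purified POS-1 fused to maltose binding protein made in E. coli; potency of compounds blocking POS-1 binding to fluorescent RNA.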

This note sets out measurements from ChEMBL document CHEMBL1201862, “PubChem BioAssay data set” (2004).

Molecules are shown by their SMILES. Activity calls are given as the source filed them.

DNA dC->dU-editing enzyme APOBEC-3G, sequence (Q9HC16 whole entry): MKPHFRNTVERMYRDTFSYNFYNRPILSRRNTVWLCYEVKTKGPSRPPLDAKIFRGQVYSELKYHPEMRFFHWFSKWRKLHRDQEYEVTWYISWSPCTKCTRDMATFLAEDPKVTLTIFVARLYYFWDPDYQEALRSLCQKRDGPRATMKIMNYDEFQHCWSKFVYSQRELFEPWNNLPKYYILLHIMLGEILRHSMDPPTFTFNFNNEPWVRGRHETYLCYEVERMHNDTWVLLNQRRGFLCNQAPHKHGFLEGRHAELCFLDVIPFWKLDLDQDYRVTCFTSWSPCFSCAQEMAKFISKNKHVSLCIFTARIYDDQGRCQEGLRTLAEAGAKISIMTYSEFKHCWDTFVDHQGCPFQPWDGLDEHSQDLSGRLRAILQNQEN
T7 sequence (Q9UBE0 whole entry): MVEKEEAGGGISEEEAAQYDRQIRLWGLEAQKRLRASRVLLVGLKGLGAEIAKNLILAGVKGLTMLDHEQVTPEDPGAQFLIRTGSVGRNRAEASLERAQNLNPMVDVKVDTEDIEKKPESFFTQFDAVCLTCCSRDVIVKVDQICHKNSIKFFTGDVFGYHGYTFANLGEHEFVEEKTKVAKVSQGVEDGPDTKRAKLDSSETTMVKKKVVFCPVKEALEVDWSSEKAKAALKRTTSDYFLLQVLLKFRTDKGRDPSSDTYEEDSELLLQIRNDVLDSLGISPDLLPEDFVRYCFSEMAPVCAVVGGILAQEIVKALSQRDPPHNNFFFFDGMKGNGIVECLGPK
T7 sequence (Q9UBT2 whole entry): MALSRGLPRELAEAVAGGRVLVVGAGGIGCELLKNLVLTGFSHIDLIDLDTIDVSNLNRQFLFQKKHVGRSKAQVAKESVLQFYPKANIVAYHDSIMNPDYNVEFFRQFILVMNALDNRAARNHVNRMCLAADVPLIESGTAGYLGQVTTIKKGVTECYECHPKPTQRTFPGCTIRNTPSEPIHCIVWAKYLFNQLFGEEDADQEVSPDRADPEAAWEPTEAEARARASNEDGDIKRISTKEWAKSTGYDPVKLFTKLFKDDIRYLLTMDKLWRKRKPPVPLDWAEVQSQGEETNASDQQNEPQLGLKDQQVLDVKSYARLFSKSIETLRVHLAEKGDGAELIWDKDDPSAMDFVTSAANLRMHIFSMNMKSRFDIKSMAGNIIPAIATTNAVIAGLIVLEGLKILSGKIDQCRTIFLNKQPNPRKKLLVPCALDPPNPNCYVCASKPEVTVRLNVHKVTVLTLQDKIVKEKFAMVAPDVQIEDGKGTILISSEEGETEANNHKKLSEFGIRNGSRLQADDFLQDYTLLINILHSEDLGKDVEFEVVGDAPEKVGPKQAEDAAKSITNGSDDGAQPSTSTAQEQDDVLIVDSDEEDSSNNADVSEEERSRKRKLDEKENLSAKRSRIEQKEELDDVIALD
DNA dC->dU-editing enzyme APOBEC-3A, sequence (P31941 whole entry): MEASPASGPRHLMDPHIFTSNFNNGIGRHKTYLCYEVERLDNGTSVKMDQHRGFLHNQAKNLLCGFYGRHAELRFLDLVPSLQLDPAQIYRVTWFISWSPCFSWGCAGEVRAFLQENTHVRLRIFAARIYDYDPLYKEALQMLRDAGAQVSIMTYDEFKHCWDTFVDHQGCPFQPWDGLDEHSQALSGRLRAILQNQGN
Glucose-6-phosphate 1-dehydrogenase, sequence (P11413 whole entry): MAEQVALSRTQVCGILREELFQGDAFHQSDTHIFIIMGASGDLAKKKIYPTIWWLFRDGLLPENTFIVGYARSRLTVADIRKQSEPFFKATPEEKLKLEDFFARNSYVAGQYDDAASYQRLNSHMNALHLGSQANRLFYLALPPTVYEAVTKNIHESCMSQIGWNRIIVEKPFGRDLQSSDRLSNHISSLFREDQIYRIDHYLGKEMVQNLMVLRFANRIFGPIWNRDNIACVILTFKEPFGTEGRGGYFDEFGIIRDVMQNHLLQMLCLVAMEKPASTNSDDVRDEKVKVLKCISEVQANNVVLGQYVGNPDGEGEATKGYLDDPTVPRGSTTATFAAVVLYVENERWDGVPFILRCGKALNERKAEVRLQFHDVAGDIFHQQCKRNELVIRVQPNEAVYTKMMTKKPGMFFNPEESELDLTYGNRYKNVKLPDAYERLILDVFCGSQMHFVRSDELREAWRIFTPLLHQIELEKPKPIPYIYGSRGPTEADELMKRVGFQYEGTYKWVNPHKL
T4 sequence (P41145 whole entry): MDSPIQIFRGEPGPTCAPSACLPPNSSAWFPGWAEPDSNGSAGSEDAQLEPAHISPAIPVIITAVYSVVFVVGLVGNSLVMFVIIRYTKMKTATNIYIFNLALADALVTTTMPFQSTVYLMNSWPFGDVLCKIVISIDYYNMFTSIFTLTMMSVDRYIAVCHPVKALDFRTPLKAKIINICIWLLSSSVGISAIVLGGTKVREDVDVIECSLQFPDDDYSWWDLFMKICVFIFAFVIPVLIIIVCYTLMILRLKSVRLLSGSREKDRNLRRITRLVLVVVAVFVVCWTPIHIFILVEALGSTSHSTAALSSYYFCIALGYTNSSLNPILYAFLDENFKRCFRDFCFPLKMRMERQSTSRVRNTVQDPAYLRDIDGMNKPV
Nonstructural protein 1, sequence (Q194T2 whole entry): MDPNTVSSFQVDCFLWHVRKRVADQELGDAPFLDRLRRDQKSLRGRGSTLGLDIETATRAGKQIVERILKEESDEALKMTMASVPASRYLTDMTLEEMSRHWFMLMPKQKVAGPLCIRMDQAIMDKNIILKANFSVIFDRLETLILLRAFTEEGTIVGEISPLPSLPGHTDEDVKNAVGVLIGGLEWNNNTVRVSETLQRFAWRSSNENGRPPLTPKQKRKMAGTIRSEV
FAD-linked sulfhydryl oxidase ALR, sequence (P55789 whole entry): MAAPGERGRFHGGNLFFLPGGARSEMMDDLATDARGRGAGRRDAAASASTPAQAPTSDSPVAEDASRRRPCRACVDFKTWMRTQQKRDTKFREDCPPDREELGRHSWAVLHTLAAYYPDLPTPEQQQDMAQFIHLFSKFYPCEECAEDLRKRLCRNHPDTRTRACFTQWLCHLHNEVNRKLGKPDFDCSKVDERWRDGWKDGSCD

For `Cc1ccc(NNS(=O)(=O)c2ccc(C)cc2)cc1`, the half-maximal inhibitory concentration (IC50) is 37.9 µM (active) in test [1] and > 80 µM (inactive) in test [2]. In addition, the AC50 on Cytochrome P450 3A4 was 28.2 µM (inconclusive).
As to `Cc1ccc(NC(=O)CCn2cccc2)cc1C`, the IC50 at Coagulation factor XII is > 50 µM (inactive).
Same read-out and setting: the result for `Cc1ccn(CC(=O)O)c(=O)c1` reads > 50 µM (inactive).
Consider `Cc1cc2nc(N3C(=O)CNC3=S)sc2cc1C`, for which the concentration giving a half-maximal response (EC50) is > 150 µM (not active) on Streptokinase A, > 31.5 µM (inactive) on Beta-galactosidase [4], 3.98 µM (active) in test [6] and 10.6 µM (active) with Streptococcus. Moreover, the IC50 at Beta-galactosidase [3] is > 66.6 µM (inactive); in test [5] it was above 32 µM; in [7], 8.55 µM (active).
Consider `Cc1cc(C)nc(SSc2nc(C)cc(C)n2)n1`, for which the half-maximal inhibitory concentration (IC50) was 5.1 µM (active) in test [1], 28.2 µM (active) on Large T antigen, > 100 µM (inactive) in test [8] and > 80 µM (inactive) in [2].
With `CC1CCc2c(sc(NC(=O)COC(=O)c3ccccc3NCc3ccco3)c2C#N)C1` (stereo not given), on Trypsin, the half-maximal activity concentration (AC50) is 9.07 µM (active).
With `CCOc1ccc(C(=O)N/N=C/c2cccc3cccnc23)cc1`, the IC50 on Nonstructural protein 1 was 11.4 µM (active); at Beta-galactosidase [3], > 66.6 µM (inactive); in “cells” it was 2.75 µM (active). In addition, the results for the CC50 in test [9] and in [10] were 11.5 µM (active) and > 20 µM (active), respectively.
Take `CCc1ccc2nc(NC(=O)c3ccc4c(O)nc(CN5CCOCC5)nc4c3)sc2c1`: the IC50 in test [11] is > 50 µM (inactive); at Estrogen receptor, 8.23 µM (active); in test [12] it was 6.59 µM (active); on SUMO-activating enzyme [13], 3.54 µM (active); at SUMO-activating enzyme [14], 7.19 µM (active).
For the compound `CN(/N=C/c1cc(Br)cc(Br)c1O)c1cccc(C(F)(F)F)n1`, the concentration giving a half-maximal response (EC50) is > 150 µM (not active) at Streptokinase A, 0.58 µM (active) in test [6] and 9.95 µM (active) in the test with Streptococcus. The IC50 at Beta-galactosidase [3] was > 66.6 µM (inactive). Further, the CC50 in [15] is 17.6 µM (active). The half-maximal activity concentration (AC50) in the test with INS1 was 10.7 µM (active); in [16], 5.94 µM (active).
`COc1cc(/C=N/n2c(S)nnc2COc2ccccc2)cc(Br)c1O`: the half-maximal inhibitory concentration (IC50) is 2.19 µM (active) in test [1] and > 100 µM (inactive) in test [8]. In addition, the AC50 in test [17] was 2.65 µM (active).
Take `CCOCCCNC(=O)CCC(=O)NNc1nc2ccccc2c2nc(C)nn12`: in test [18], the IC50 is > 100 µM (inactive). For the same compound, the EC50 is 1.45 µM (active) in test [19] and > 300 µM (not active) in test [20].
